Legend:
KRAS (WT) = target: T1, KRAS (WT) (Homo sapiens, UniProt P01116); test: In-vitro RAS-RAF binding assay (RRB), HTRF/FRET; type: biochemical; details: Table 2, average of multiple runs of each compound; read-out: Inhibition of RAS-RAF Binding (in-vitro) KRAS (WT) IC50
T1 construct: Biotinylated KRAS protein amino acids 1-169 (produced at Erasca); made in house
Outline: (§1)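 Compounds preincubated with terbium-labelled biotinylated KRAS (aa 1-169, 30 nM) before 60 min SOS1-catalysed exchange to GTPgS. Binding of the d2-labelled cRAF RBD (30 nM) is read as FRET at equilibrium in duplicate. Buffer: 50 mM HEPES pH 7.5, 100 mM NaCl, 1 mM MgCl2, 1 mM DTT.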

KRAS G12D = KRAS G12D (Homo sapiens, UniProt P01116, G12D); test: In-vitro RAS-RAF binding assay (RRB), HTRF/FRET; type: biochemical; parameters: Biotinylated KRAS protein amino acids 1-169 (produced at Erasca); made in house; details: Table 2, average of multiple runs of each compound; read-out: Inhibition of RAS-RAF Binding (in-vitro) KRAS (G12D) IC50
KRAS G12D, sequence (P01116 1-169 isoform P01116-2 G12D): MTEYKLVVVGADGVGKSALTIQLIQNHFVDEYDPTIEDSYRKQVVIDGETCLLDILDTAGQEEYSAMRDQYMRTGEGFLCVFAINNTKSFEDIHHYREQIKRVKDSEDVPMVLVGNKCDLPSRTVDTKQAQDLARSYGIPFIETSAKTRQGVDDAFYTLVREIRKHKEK
Outline: as §1

T1 sequence (P01116 1-169 isoform P01116-2): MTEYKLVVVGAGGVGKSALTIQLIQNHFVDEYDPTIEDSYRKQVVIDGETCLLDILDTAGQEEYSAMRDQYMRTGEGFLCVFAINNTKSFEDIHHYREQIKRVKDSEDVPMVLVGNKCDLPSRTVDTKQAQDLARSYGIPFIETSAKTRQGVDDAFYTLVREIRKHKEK

Row | IC50 (KRAS (WT)) | IC50 (KRAS G12D) | SMILES
1 | 24.7 nM | 7.53 nM | C#Cc1c(F)ccc2cc(O)cc(-c3ncc4c(N5CC6CCC(C5)N6)nc(OC[C@@H]5CCCN5CCCOCCC(=O)N[C@H](C(=O)N5C[C@H](O)C[C@H]5C(=O)N[C@@H](C)c5ccc(-c6cccnc6C(F)(F)F)cc5)C(C)(C)C)nc4c3F)c12 [Example 48, (2S,4R)-1-((2S)-2-(3-(3-((2S)-2-(((4-(3,8-diazabicyclo[3.2.1]octan-3-yl)-7-(8-ethynyl-7-fluoro-3-hydroxynaphthalen-1-yl)-8-fluoropyrido[4,3-d]pyrimidin-2-yl)oxy)methyl)pyrrolidin-1-yl)propoxy)propanamido)-3,3-dimethylbutanoyl)-4-hydroxy-N-((S)-1-(4-(2-(trifluoromethyl)pyridin-3-yl)phenyl)ethyl)pyrrolidine-2-carboxamide]
2 | 98.9 nM | 10.2 nM | C#Cc1c(F)ccc2cc(O)cc(-c3ncc4c(N5CC6CCC(C5)N6)nc(OC[C@@H]5CCCN5CCCOCCC(=O)O[C@H](C(=O)N5C[C@H](O)C[C@H]5C(=O)N[C@@H](C)c5ccc(-c6c(C)cccc6C(F)(F)F)cc5)C(C)(C)C)nc4c3F)c12 [Example 50, (S)-1-((2S,4R)-4-hydroxy-2-(((S)-1-(2′-methyl-6′-(trifluoromethyl)-[1,1′-biphenyl]-4-yl)ethyl)carbamoyl)pyrrolidin-1-yl)-3,3-dimethyl-1-oxobutan-2-yl 3-(3-((2S)-2-(((4-(3,8-diazabicyclo[3.2.1]octan-3-yl)-7-(8-ethynyl-7-fluoro-3-hydroxynaphthalen-1-yl)-8-fluoropyrido[4,3-d]pyrimidin-2-yl)oxy)methyl)pyrrolidin-1-yl)propoxy)propanoate]
3 | 95.7 nM | 9.09 nM | C#Cc1c(F)ccc2cc(O)cc(-c3ncc4c(N5CC6CCC(C5)N6)nc(OC[C@@H]5CCCN5CCCOCCC(=O)N[C@H](C(=O)N5C[C@H](O)C[C@H]5C(=O)N[C@@H](C)c5ccc(-c6cccc(F)c6F)cc5)C(C)(C)C)nc4c3F)c12 [Example 51, (2S,4R)-1-((2S)-2-(3-(3-((2S)-2-(((4-(3,8-diazabicyclo[3.2.1]octan-3-yl)-7-(8-ethynyl-7-fluoro-3-hydroxynaphthalen-1-yl)-8-fluoropyrido[4,3-d]pyrimidin-2-yl)oxy)methyl)pyrrolidin-1-yl)propoxy)propanamido)-3,3-dimethylbutanoyl)-N-((S)-1-(2′,3′-difluoro-[1,1′-biphenyl]-4-yl)ethyl)-4-hydroxypyrrolidine-2-carboxamide]
4 | 114 nM | 7.84 nM | C#Cc1c(F)ccc2cc(O)cc(-c3ncc4c(N5CC6CCC(C5)N6)nc(OC[C@@H]5CCCN5CCCOCCC(=O)N[C@H](C(=O)N5C[C@H](O)C[C@H]5C(=O)N[C@@H](C)c5ccc(-c6cc(F)c(F)c(F)c6)cc5)C(C)(C)C)nc4c3F)c12 [Example 52, (2S,4R)-1-((2S)-2-(3-(3-((2S)-2-(((4-(3,8-diazabicyclo[3.2.1]octan-3-yl)-7-(8-ethynyl-7-fluoro-3-hydroxynaphthalen-1-yl)-8-fluoropyrido[4,3-d]pyrimidin-2-yl)oxy)methyl)pyrrolidin-1-yl)propoxy)propanamido)-3,3-dimethylbutanoyl)-4-hydroxy-N-((S)-1-(3′,4′,5′-trifluoro-[1,1′-biphenyl]-4-yl)ethyl)pyrrolidine-2-carboxamide]
5 | 123 nM | 8.82 nM | C#Cc1c(F)ccc2cc(O)cc(-c3ncc4c(N5CC6CCC(C5)N6)nc(OC[C@@H]5CCCN5CCCOCC(=O)N[C@H](C(=O)N5C[C@H](O)C[C@H]5C(=O)N[C@@H](C)c5ccc(-c6c(F)ccc(F)c6F)cc5)C(C)(C)C)nc4c3F)c12 [Example 53, (2S,4R)-1-((2S)-2-(2-(3-((2S)-2-(((4-(3,8-diazabicyclo[3.2.1]octan-3-yl)-7-(8-ethynyl-7-fluoro-3-hydroxynaphthalen-1-yl)-8-fluoropyrido[4,3-d]pyrimidin-2-yl)oxy)methyl)pyrrolidin-1-yl)propoxy)acetamido)-3,3-dimethylbutanoyl)-4-hydroxy-N-((S)-1-(2′,3′,6′-trifluoro-[1,1′-biphenyl]-4-yl)ethyl)pyrrolidine-2-carboxamide]
6 | 52.9 nM | 9.65 nM | C#Cc1c(F)ccc2cc(O)cc(-c3ncc4c(N5CC6CCC(C5)N6)nc(OC[C@@H]5CCCN5CCCOCCC(=O)N[C@H](C(=O)N5C[C@H](O)C[C@H]5C(=O)N[C@@H](C)c5ccc(-c6c(F)c(F)cc(F)c6F)cc5)C(C)(C)C)nc4c3F)c12 [Example 54, (2S,4R)-1-((2S)-2-(3-(3-((2S)-2-(((4-(3,8-diazabicyclo[3.2.1]octan-3-yl)-7-(8-ethynyl-7-fluoro-3-hydroxynaphthalen-1-yl)-8-fluoropyrido[4,3-d]pyrimidin-2-yl)oxy)methyl)pyrrolidin-1-yl)propoxy)propanamido)-3,3-dimethylbutanoyl)-4-hydroxy-N-((S)-1-(2′,3′,5′,6′-tetrafluoro-[1,1′-biphenyl]-4-yl)ethyl)pyrrolidine-2-carboxamide]
7 | 67 nM | 9.79 nM | C#Cc1c(F)ccc2cc(O)cc(-c3ncc4c(N5CC6CCC(C5)N6)nc(OC[C@@H]5CCCN5CCCOCCC(=O)N[C@H](C(=O)N5C[C@H](O)C[C@H]5C(=O)N[C@@H](C)c5ccc(-c6ccc(F)c(F)c6F)cc5)C(C)(C)C)nc4c3F)c12 [Example 55, (2S,4R)-1-((2S)-2-(3-(3-((2S)-2-(((4-(3,8-diazabicyclo[3.2.1]octan-3-yl)-7-(8-ethynyl-7-fluoro-3-hydroxynaphthalen-1-yl)-8-fluoropyrido[4,3-d]pyrimidin-2-yl)oxy)methyl)pyrrolidin-1-yl)propoxy)propanamido)-3,3-dimethylbutanoyl)-4-hydroxy-N-((S)-1-(2′,3′,4′-trifluoro-[1,1′-biphenyl]-4-yl)ethyl)pyrrolidine-2-carboxamide]
8 | 65.7 nM | 9.36 nM | C#Cc1c(F)ccc2cc(O)cc(-c3ncc4c(N5CC6CCC(C5)N6)nc(OC[C@@H]5CCCN5CCCOCCC(=O)N[C@H](C(=O)N5C[C@H](O)C[C@H]5C(=O)N[C@@H](C)c5ccc(-c6c(C)ccc(C)c6C)cc5)C(C)(C)C)nc4c3F)c12 [Example 56, (2S,4R)-1-((2S)-2-(3-(3-((2S)-2-(((4-(3,8-diazabicyclo[3.2.1]octan-3-yl)-7-(8-ethynyl-7-fluoro-3-hydroxynaphthalen-1-yl)-8-fluoropyrido[4,3-d]pyrimidin-2-yl)oxy)methyl)pyrrolidin-1-yl)propoxy)propanamido)-3,3-dimethylbutanoyl)-4-hydroxy-N-((S)-1-(2′,3′,6′-trimethyl-[1,1′-biphenyl]-4-yl)ethyl)pyrrolidine-2-carboxamide]
9 | 118 nM | 13.1 nM | C#Cc1c(F)ccc2cc(O)cc(-c3ncc4c(N5CC6CCC(C5)N6)nc(OC[C@@H]5CCCN5CCCOCCC(=O)N[C@H](C(=O)N5C[C@H](O)C[C@H]5C(=O)N[C@@H](C)c5ccc(-c6c(Cl)ccc(Cl)c6Cl)cc5)C(C)(C)C)nc4c3F)c12 [Example 57, (2S,4R)-1-((2S)-2-(3-(3-((2S)-2-(((4-(3,8-diazabicyclo[3.2.1]octan-3-yl)-7-(8-ethynyl-7-fluoro-3-hydroxynaphthalen-1-yl)-8-fluoropyrido[4,3-d]pyrimidin-2-yl)oxy)methyl)pyrrolidin-1-yl)propoxy)propanamido)-3,3-dimethylbutanoyl)-4-hydroxy-N-((S)-1-(2′,3′,6′-trichloro-[1,1′-biphenyl]-4-yl)ethyl)pyrrolidine-2-carboxamide]
10 | 65.9 nM | 9.55 nM | C#Cc1c(F)ccc2cc(O)cc(-c3ncc4c(N5CC6CCC(C5)N6)nc(OC[C@@H]5CCCN5CCCOCCC(=O)N[C@H](C(=O)N5C[C@H](O)C[C@H]5C(=O)N[C@@H](C)c5ccc(-c6cc(F)cc(F)c6F)cc5)C(C)(C)C)nc4c3F)c12 [Example 58, (2S,4R)-1-((2S)-2-(3-(3-((2S)-2-(((4-(3,8-diazabicyclo[3.2.1]octan-3-yl)-7-(8-ethynyl-7-fluoro-3-hydroxynaphthalen-1-yl)-8-fluoropyrido[4,3-d]pyrimidin-2-yl)oxy)methyl)pyrrolidin-1-yl)propoxy)propanamido)-3,3-dimethylbutanoyl)-4-hydroxy-N-((S)-1-(2′,3′,5′-trifluoro-[1,1′-biphenyl]-4-yl)ethyl)pyrrolidine-2-carboxamide]
11 | 73.1 nM | 7.52 nM | C#Cc1c(F)ccc2cc(O)cc(-c3ncc4c(N5CC6CCC(C5)N6)nc(OC[C@@H]5CCCN5CCCOCCC(=O)N[C@H](C(=O)N5C[C@H](O)C[C@H]5C(=O)N[C@@H](C)c5ccc(-c6c(F)c(F)c(F)c(F)c6F)cc5)C(C)(C)C)nc4c3F)c12 [Example 59, (2S,4R)-1-((2S)-2-(3-(3-((2S)-2-(((4-(3,8-diazabicyclo[3.2.1]octan-3-yl)-7-(8-ethynyl-7-fluoro-3-hydroxynaphthalen-1-yl)-8-fluoropyrido[4,3-d]pyrimidin-2-yl)oxy)methyl)pyrrolidin-1-yl)propoxy)propanamido)-3,3-dimethylbutanoyl)-4-hydroxy-N-((S)-1-(2′,3′,4′,5′,6′-pentafluoro-[1,1′-biphenyl]-4-yl)ethyl)pyrrolidine-2-carboxamide]
